Assay results as given in patent US20230355599A1, “BIOMARKERS FOR CBL, AND COMPOSITIONS AND METHODS FOR THEIR USE” (NURIX THERAPEUTICS, INC., priority 2022, published 2023).

Key:
A20 lymphoma tumor model = assay: A20 lymphoma tumor model, anti-tumor activity; type: in vivo, mouse; conditions: dosed at 10, 30 or 60 mg/kg
Description: An elevated percentage of pHS1+CD8+ T cells correlated with potent anti-tumor effects in mouse syngeneic tumor models and defined a biomarker therapeutic range. At this therapeutic range, approximately 50% proximal biomarker pHS1 correlates with the efficacious range.

pY319-Zap70 = assay: Phosphoprotein screen in human whole blood with CBL inhibitor at 10 uM: ZAP70; type: cell-based; conditions: 1 hr 37° C., human whole blood 8 donors, anti-CD3/CD28 + crosslinker 60 minutes
Procedure: (§1) To identify proximal biomarkers of CBL-B inhibition in immune cells, a panel of phosphorylated proteins were screened in human whole blood incubated with CBL-B inhibitor and concomitant anti-CD3 and anti-CD28 antibodies. The effect of CBL-B inhibition was assessed across multiple cellular signaling networks.
(§2) Human heparinized whole blood from 8 donors was received after an overnight shipment at 4° C. The blood was plated, treated with CBL inhibitor at 10 uM and incubated at 37° C. for 60 minutes. After incubation, the cells were stimulated with anti-CD3/CD28 followed by a cross-linking antibody (30 μg of goat anti-mouse IgG (H+L) antibody (Invitrogen)). After 60 minutes, the cells were fixed, and stained using surface markers for T cells (CD3^+CD4^+& CD3^+CD8^+) and analyzed by flow cytometry for target phosphorylation of the following markers: pY180/pY511-ITK, pY397-HS1, pY759-PLCg2, pY783-PLCg1, pY525/pY526/pY348-SYK & pY319-Zap70.
(§3) Fold change of each biomarker was calculated with the following example equation: […]
(§4) Whole blood from eight human donors was collected in sodium heparin anti-coagulant treated with 10 μM of Compound 23 for 1 hr at 37° C. […] Fold change of % phosphorylation normalized to DMSO was quantitated in T cells (CD8^+) using flow cytometry is provided in FIGS. 6A-6B.

phosphorylated ZAP70 = assay: Phosphorylated ZAP70 in circulating CD8+ T cells of patients, Phase 1 trial (flow cytometry); type: in vivo, human
Procedure: [The procedure below names another target; the source lists this target under the same test.] Pharmacodynamic analysis of the proximal biomarker, phosphorylated HS1 is assessed in circulating CD8^+ T cells from patients that are being administered doses ranging from 5 to 50 mg of Compound 23 once daily and is being used to assess target engagement of Compound 23 as part of the dose/exposure-response profile. Whole blood is collected longitudinally and added into two types of TruCulture (Myriad) tubes. One tube contains media, and the second tube contains anti-CD3 and anti-CD28, which are subsequently crosslinked to induce cellular stimulation for pharmacodynamic analysis. Phosphorylated HS1 is assessed by flow cytometry pre and post dose on Cycle 1 Day 1 (C1D1) and Cycle 2 Day 1 (C2D1) to characterize single/multiple dose PD profiles.
% Maximal phosphorylated signal and % AUC are two commonly used parameters to assess the pharmacodynamic effects of drugs.
% Maximal phosphorylated signal refers to the maximum amount of a specific protein that becomes phosphorylated (i.e., modified by the addition of a phosphate group) in response to a drug or other stimulus. This parameter is often used to measure the activation of signaling pathways that are important for various cellular processes, including cell growth and differentiation, immune response, and metabolism.
% AUC, on the other hand, refers to the area under the curve (AUC) over time, expressed as a percentage of the maximum possible AUC. In summary, both % maximal phosphorylated signal and % AUC are useful parameters to assess the pharmacodynamic effects of drugs. % maximal phosphorylated signal is a measure of the activation of signaling pathways, while % AUC reflects the duration of the effect on PD signals. Both parameters can be used to evaluate the potency and duration of a drug's pharmacodynamic effects.

pY783-PLCg1 = assay: Phosphoprotein screen in human whole blood with CBL inhibitor at 10 uM: PLCγ1; type: cell-based; conditions: 1 hr 37° C., human whole blood 8 donors, anti-CD3/CD28 + crosslinker 60 minutes
Procedure: as §1, §2, §3, §4

[1] = 5 mg once daily, n=1, cycle 1, day 1
[2] = 15 mg once daily, n=12, cycle 1, day 1
[3] = 25 mg once daily, n=7, cycle 1, day 1
[4] = 50 mg once daily, n=2, cycle 1, day 1

C[C@H]1CCCN(Cc2cc3c(c(C(F)(F)F)c2)CN(c2cccc([C@]4(c5nncn5C)C[C@@H](C)C4)c2)C3=O)C1 [Compound 23]
median survival time compared to the vehicle control (A20 lymphoma tumor model): prolonged median survival time | tumor size compared to the vehicle control (A20 lymphoma tumor model): significantly smaller tumors | increased phosphorylation of ZAP70 compared to DMSO control (pY319-Zap70): 2-3 fold | % of phosphorylated ZAP70 expressing CD8+ T cells (maximal) (phosphorylated ZAP70; [1]): 47% | phosphorylated ZAP70 AUC (phosphorylated ZAP70; [1]): 734 | % of phosphorylated ZAP70 expressing CD8+ T cells (maximal) (phosphorylated ZAP70; [2]): 83% | phosphorylated ZAP70 AUC (phosphorylated ZAP70; [2]): 1641 | % of phosphorylated ZAP70 expressing CD8+ T cells (maximal) (phosphorylated ZAP70; [3]): 82% | phosphorylated ZAP70 AUC (phosphorylated ZAP70; [3]): 1506 | % of phosphorylated ZAP70 expressing CD8+ T cells (maximal) (phosphorylated ZAP70; [4]): 85% | phosphorylated ZAP70 AUC (phosphorylated ZAP70; [4]): 1870 | trend of maximal % pZAP70 with PK (phosphorylated ZAP70; not statistically significant, p=0.06): Positive trend | increased phosphorylation of PLCγ1 compared to DMSO control (pY783-PLCg1): 2-3 fold
